Values quoted from earlier work, collected in article PMC6547379 (The European respiratory journal, 2018).

Tested on: CF patients
Conditions: ref [34]

Cc1c(-c2ccnn2C)cc(C(=O)NCc2ccc(S(C)(=O)=O)cn2)c(=O)n1-c1cccc(C(F)(F)F)c1 [AZD9668]
effect on inflammation / lung function in CF patients: no effect on inflammation or lung function
